Consider two compounds from ChEMBL document CHEMBL1158196, “Isolation and synthesis of novel farnesyl protein transferase inhibitors, valinoctins A and B, from Streptomyces strain MJ858-NF3” (J Nat Prod, 1996).

Converted amounts (≈) assume the structure as drawn.

The assay is described as follows: Inhibition of bovine brain FPTase after 20 mins. More on the design: species or system Bos taurus.

Consider `CCCCC[C@@H](N)[C@H](O)C(=O)N[C@H](C(=O)O)C(C)C` [VALINOCTIN A], for which the IC50 – broadly, the point on the concentration scale where inhibition reaches its midpoint – worked out at 0.9 µg/mL (≈ 3.28 µM). The figure for `CCC(C)CC[C@@H](N)[C@H](O)C(=O)N[C@H](C(=O)O)C(C)C` (some centres not stated) [VALINOCTIN B] is 1 µg/mL (≈ 3.47 µM).
